Laboratory results reported in patent US20080234299A1, “Quinazolinones” (MERCK PATENT GMBH, priority 2005, published 2008).

Tested on: cells
Assay: cell cycle experiments (G2/M)
Assay type: cell-based

With `N=C(N)c1ccc(OCCCCCOc2ccc(C(=N)N)cc2)cc1` [pentamidine] the “effect on cell cycle” value was “maintain cells in the G2/M cell cycle”.
